Measured values: US20050249675A1, “Mucin synthesis inhibitors” (priority 2003, published 2005)
Entries after “also recorded” stand apart in the source; their conditions may differ. Read-outs that look alike come from different tables or passages of the source.

Columns and labels:
H292 clone 15 cells [1] = experiment: ELLA for MUC5AC, H292 clone 15 cells (Example 11); format: cell-based, human; conditions: MUC5AC in conditioned media, 48 hours, average of 3 experiments
Protocol: ELLA (Enzyme-Linked Lectin Assay) was used to determine the inhibitory effect of compounds on mucus production by H292 clone 15 cells. H292 clone 15 cells, a subclone from human pulmonary mucoepidermoid carcinoma cells overexpressing hCLCA1, were grown to confluent, followed by incubation with increasing concentrations of compounds for 48 hours. Conditioned media were collected and MUC5AC (the major secretory mucin in lungs) content was determined by ELLA measurement as described below. 96 well microtiter plates were coated with a mouse monoclonal antibody against human MUC5AC (1-13M1, NeoMarkers), then incubated with test conditioned media. Bound MUC5AC was detected by horseradish peroxidase-conjugated soybean lectin that has a high affinity towards highly-glycosylated proteins such as MUC5AC. Conversion of peroxidase substrate TMB (Tetramethylbenzidine Base) was quantified by reading at 450 nm. O.D. (optical density) readings were plotted against concentrations of compounds. Linear regression was used to derive the concentration at which O.D. was reduced by 50% (IC50) when compared to vehicle-treated cells.

[2] = system: MUC5A/C secretion in hCLCA1 expressing H292 cells; experiment: MUC5A/C secretion by ELLA in hCLCA1 expressing H292 cells; format: cell-based, human; set-up: key to ELLA: (+) = inhibition; (−) = no inhibition
NCI-H292/hCLCA1 cells = experiment: AB/PAS staining of mucous glycoconjugates in NCI-H292/hCLCA1 cells; format: cell-based, human; conditions: NFA 100 μM, MFA 125 or 250 μM, talniflumate 12.5, 25 or 50 μM; vs untreated cells
Protocol: For the determination of mucous glycoconjugate production, NCI-H292/ctl and NCI-H292/hCLCA1 (AAF 15) cells were cultured in 24-well plates for 3 days. Cells were then fixed with Formalin and mucous glycoconjugates were visualized by AB/PAS staining (Sigma). […] For chloride channel blockage studies, cells were cultured in the presence of niflumic acid (NFA) (Sigma) at 100 μM concentration, mefanamic acid (MFA) at 125 or 250 μM or talniflumate at 12.5, 25 or 50 μM, or media alone.
For the determination of mucous glycoconjugate production, NCI-H292/hCLCA1 cells were cultured in 24-well plates for 3 days with at concentrations of 0 to 150 μM of the talniflumate enantiomers or media alone (control). Cells were then fixed with Formalin and mucous glycoconjugates were visualized by AB/PAS staining (Sigma). […] In this assay both enantiomers were seen to inhibit muco-glycoconjugate production at concentrations>40 μM.

MUC2 = format: cell-based; conditions: LTA from S. aureus; FIG. 22
[3] = system: mice sensitized to Aspergillus fumigatus; experiment: Aspergillus fumigatus murine asthma model, talniflumate chow; format: in vivo; conditions: oral; for Lung eosinophilia by bronchoalveolar lavage: talniflumate chow, vs sensitized mice fed standard chow
[4] = molecular target: T1, human chloride channel hCLCA1 (Homo sapiens, UniProt A8K7I4); experiment: Patch clamp chloride current, NCI-H292 cell expressing hCLCA1; format: cell-based; conditions: 5 micromolar talniflumate; 2 μM ionomycin and 2 mM calcium; positive voltage
T1 construct: expressed in transfected cells; host or cells: NCI-H292 (human pulmonary mucoepidermoid carcinoma)
T1 sequence (A8K7I4 22-914): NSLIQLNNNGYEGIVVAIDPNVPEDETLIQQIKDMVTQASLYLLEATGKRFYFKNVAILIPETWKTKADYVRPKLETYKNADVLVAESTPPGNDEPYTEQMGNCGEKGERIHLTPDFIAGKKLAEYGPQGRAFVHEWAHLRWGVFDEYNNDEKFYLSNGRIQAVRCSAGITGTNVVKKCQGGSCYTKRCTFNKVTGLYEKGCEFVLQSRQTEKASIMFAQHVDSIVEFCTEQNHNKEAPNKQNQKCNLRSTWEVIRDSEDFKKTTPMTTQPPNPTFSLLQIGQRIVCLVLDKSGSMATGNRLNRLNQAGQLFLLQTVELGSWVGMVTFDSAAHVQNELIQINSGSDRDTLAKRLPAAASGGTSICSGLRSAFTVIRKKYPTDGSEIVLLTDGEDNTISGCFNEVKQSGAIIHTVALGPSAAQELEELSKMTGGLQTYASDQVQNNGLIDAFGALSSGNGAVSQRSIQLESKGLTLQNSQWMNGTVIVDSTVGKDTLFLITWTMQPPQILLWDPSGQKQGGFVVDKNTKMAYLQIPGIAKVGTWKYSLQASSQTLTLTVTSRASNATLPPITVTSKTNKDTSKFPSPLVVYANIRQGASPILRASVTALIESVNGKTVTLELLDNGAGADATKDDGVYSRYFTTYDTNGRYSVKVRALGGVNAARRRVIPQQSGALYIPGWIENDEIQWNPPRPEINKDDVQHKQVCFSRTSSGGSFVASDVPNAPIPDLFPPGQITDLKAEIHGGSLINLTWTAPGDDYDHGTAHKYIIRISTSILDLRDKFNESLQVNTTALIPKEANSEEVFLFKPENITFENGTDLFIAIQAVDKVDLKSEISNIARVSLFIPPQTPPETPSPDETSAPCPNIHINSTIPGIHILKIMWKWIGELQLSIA
Protocol: An NCI-H292 cell transfected with a plasmid expressing the human chloride channel hCLCA1 was patch clamped and chloride current (I) was measured over a range of voltages (V). Substantial chloride current was invoked by the addition of 2 μM ionomycin and 2 mM calcium (circles) compared to baseline (squares), indicating activation of hCLCA1.

H292 clone 15 cells [5] = experiment: Alamar Blue cytotoxicity; conditions: for Est. LD50 (Alamar Blue): H292 clone 15 cells, 48 hours, average of 3 experiments
[6] = system: CF mice (CF knock-out mice and CF AF508 mice); experiment: CF mice body weight and survival on talniflumate chow; format: in vivo; conditions: approximate dose of 100 mg/kg per os in chow
Protocol: Within two weeks of weaning, the osmotic agent treatment was discontinued and the mice were either placed on talniflumate containing chow or control chow. The CF mice consuming control chow lost 10-15% body weight and died (CF knock-out) or were euthanized (CF AF508) due to the animal's moribund state within 7 days post-osmotic agent. In contrast, the CF mice that consumed talniflumate (approximate dose of 100 mg/kg per os) gained 8-12% body weight and survived at least 26 days, at which time they were sacrificed to evaluate histopathology (see FIG. 20).

Muc5b = experiment: Inhibition of Muc5b expression; format: cell-based; set-up: key: (+) = inhibition; (−) = no inhibition; conditions: Table 2
Protocol: The effects of talniflumate derivatives on mucin production were also assayed for changes in ELLA and IC50 (Table 2) as described in the methods above.

Q: What does the source list for O=C1OC(OC(=O)c2cccnc2Nc2cccc(C(F)(F)F)c2)c2ccccc21 (racemic) [Talniflumate, talniflumate]?
A: IC50 (H292 clone 15 cells [1]; Homo sapiens, NCI-H292): 33 µM; Inhibition of MUC5A/C secretion / mucin production (figure legends) [2]: inhibition of mucin production; IC50 ([2]; Homo sapiens, NCI-H292/hCLCA1 cells, 0 through 150 μM, 48 hours, FIG. 26, read-out: IC50, inhibition of MUC5A/C secretion): 36 µM; PAS positive staining muco-glycoconjugates (NCI-H292/hCLCA1 cells): significantly fewer positive staining muco-glycoconjugates; Lipoteichoic acid induction of MUC2 (luciferase RLU) (MUC2): modulated; Lung eosinophilia by bronchoalveolar lavage [3]: reduced the number of eosinophilic cells; Lung eosinophilia by bronchoalveolar lavage ([3]; listed as talniflumate): inhibition of lung eosinophilia; Mucin (PAS) staining in lung ([3]; talniflumate containing chow, Asp-sens mice): reduced mucin staining; also recorded: inhibition of mucin over production; Chloride Current [4]: reduction in chloride current; Est. LD50 (Alamar Blue) (H292 clone 15 cells [5]): 108 µM; LD50 (Alamar Blue) (H292 clone 15 cells [5]; NCI-H292/hCLCA1 cells, concentrations up to 150 μM, FIG. 27): > 150 µM; Body weight gain [6]: 8-12%; Survival ([6]; then sacrificed): at least 26 days

Q: Which IC50 (H292 clone 15 cells [1]) does the source give for O=C1OC(CC(=O)c2cccnc2Nc2cccc(C(F)(F)F)c2)c2ccccc21 (stereo not drawn) [4 (MSI 2216)] here?
A: 3 µM

Q: What about the IC50 ([2]; Table 2, ELLA, read-out: IC50) of the same molecule?
A: 5 µM

Q: What about the ELLA ([2]; Table 2, mucin production) of the same molecule?
A: +

Q: And the “Inhibition of Muc5b Expression” value (Muc5b)?
A: +

Q: What about the “Est. LD50 (Alamar Blue)” value (H292 clone 15 cells [5]) of the same molecule?
A: 32 µM
